Reference: ChEMBL document CHEMBL3885881, “DrugMatrix”

Organism: Rattus norvegicus
Experiment: DrugMatrix - Regimen: Daily Repeat
Format: toxicity, organism-based, Sprague-Dawley
Set-up: regimen Daily Repeat, gender Male, age 6-8 weeks
Settings: in vivo, po, route oral GAVAGE, […]; for ABSOLUTE BASOPHIL / ABSOLUTE EOSINOPHIL / ABSOLUTE LYMPHOCYTE / ABSOLUTE MONOCYTE / ABSOLUTE SEGMENTED NEUTROPHIL / BASOPHIL / EOSINOPHIL / ERYTHROCYTE COUNT / HEMATOCRIT / HEMOGLOBIN / LEUKOCYTE COUNT / LYMPHOCYTE / MEAN CORPUSCULAR HEMOGLOBIN / MEAN CORPUSCULAR HEMOGLOBIN CONCENTRATION / MEAN CORPUSCULAR VOLUME / MONOCYTE / NEUTROPHIL / NUCLEATED RED BLOOD CELLS / PLATELET COUNT: tissue Blood; for ALANINE AMINOTRANSFERASE / ALBUMIN / ALKALINE PHOSPHATASE / ASPARTATE AMINOTRANSFERASE / BLOOD UREA NITROGEN / CARBON DIOXIDE / CHLORIDE / CHOLESTEROL / CREATINE PHOSPHOKINASE / CREATININE / GLUCOSE / LACTATE DEHYDROGENASE / LIPASE / PHOSPHORUS / POTASSIUM / SODIUM / TOTAL BILIRUBIN / TOTAL PROTEIN / URIC ACID: tissue Plasma
[1] = 0 mg/kg, 72 h, dose level Control, time 3 day
[2] = 0 mg/kg, 120 h, dose level Control, time 5 day
[3] = 30 mg/kg, 72 h, dose level Low, time 3 day
[4] = 30 mg/kg, 120 h, dose level Low, time 5 day

Cc1ccc(-c2cc(C(F)(F)F)nn2-c2ccc(S(N)(=O)=O)cc2)cc1 [CELECOXIB]
ABSOLUTE BASOPHIL [1]: 0 CELLS/uL
ABSOLUTE EOSINOPHIL [1]: 104.17 CELLS/uL
ABSOLUTE LYMPHOCYTE [1]: 14547 CELLS/uL
ABSOLUTE MONOCYTE [1]: 292 CELLS/uL
ABSOLUTE SEGMENTED NEUTROPHIL [1]: 1640.17 CELLS/uL
BASOPHIL [1]: 0%
EOSINOPHIL [1]: 0.67%
ERYTHROCYTE COUNT [1]: 5.35 x10E6/uL
HEMATOCRIT [1]: 33.67%
HEMOGLOBIN [1]: 13.38 G/DL
LEUKOCYTE COUNT [1]: 16.58 x10E3/uL
LYMPHOCYTE [1]: 87.5%
MEAN CORPUSCULAR HEMOGLOBIN [1]: 25.05 pg
MEAN CORPUSCULAR HEMOGLOBIN CONCENTRATION [1]: 39.78 G/DL
MEAN CORPUSCULAR VOLUME [1]: 62.97 fL
MONOCYTE [1]: 1.83%
NEUTROPHIL [1]: 10%
NUCLEATED RED BLOOD CELLS [1]: 0 /100WBC
PLATELET COUNT [1]: 1274.5 x10E3/uL
ALANINE AMINOTRANSFERASE [1]: 76.83 u/L
ALBUMIN [1]: 3.97 G/DL
ALKALINE PHOSPHATASE [1]: 347 u/L
ASPARTATE AMINOTRANSFERASE [1]: 97.17 u/L
BLOOD UREA NITROGEN [1]: 14.33 mg/dL
CARBON DIOXIDE [1]: 25.5 mmol/L
CHLORIDE [1]: 100.33 MEQ/L
CHOLESTEROL [1]: 68.67 mg/dL
CREATINE PHOSPHOKINASE [1]: 659.17 u/L
CREATININE [1]: 0.32 mg/dL
GLUCOSE [1]: 160.67 mg/dL
LACTATE DEHYDROGENASE [1]: 271.5 u/L
LIPASE [1]: 11.67 u/L
PHOSPHORUS [1]: 10.65 mg/dL
POTASSIUM [1]: 5.95 MEQ/L
SODIUM [1]: 139.65 MEQ/L
TOTAL BILIRUBIN [1]: 0.2 mg/dL
TOTAL PROTEIN [1]: 5.72 G/DL
URIC ACID [1]: 1.37 mg/dL
ABSOLUTE BASOPHIL [2]: 0 CELLS/uL
ABSOLUTE EOSINOPHIL [2]: 331.5 CELLS/uL
ABSOLUTE LYMPHOCYTE [2]: 15021.67 CELLS/uL
ABSOLUTE MONOCYTE [2]: 376.5 CELLS/uL
ABSOLUTE SEGMENTED NEUTROPHIL [2]: 3070.33 CELLS/uL
BASOPHIL [2]: 0%
EOSINOPHIL [2]: 1.83%
ERYTHROCYTE COUNT [2]: 5.24 x10E6/uL
HEMATOCRIT [2]: 33.22%
HEMOGLOBIN [2]: 13.2 G/DL
LEUKOCYTE COUNT [2]: 18.8 x10E3/uL
LYMPHOCYTE [2]: 79.67%
MEAN CORPUSCULAR HEMOGLOBIN [2]: 25.17 pg
MEAN CORPUSCULAR HEMOGLOBIN CONCENTRATION [2]: 39.73 G/DL
MEAN CORPUSCULAR VOLUME [2]: 63.38 fL
MONOCYTE [2]: 2%
NEUTROPHIL [2]: 16.5%
NUCLEATED RED BLOOD CELLS [2]: 0 /100WBC
PLATELET COUNT [2]: 1142.67 x10E3/uL
ALANINE AMINOTRANSFERASE [2]: 52.5 u/L
ALBUMIN [2]: 3.9 G/DL
ALKALINE PHOSPHATASE [2]: 284.5 u/L
ASPARTATE AMINOTRANSFERASE [2]: 81.33 u/L
BLOOD UREA NITROGEN [2]: 16 mg/dL
CARBON DIOXIDE [2]: 25.33 mmol/L
CHLORIDE [2]: 99.5 MEQ/L
CHOLESTEROL [2]: 74.83 mg/dL
CREATINE PHOSPHOKINASE [2]: 448.33 u/L
CREATININE [2]: 0.37 mg/dL
GLUCOSE [2]: 164.17 mg/dL
LACTATE DEHYDROGENASE [2]: 290.67 u/L
LIPASE [2]: 6.83 u/L
PHOSPHORUS [2]: 11.5 mg/dL
POTASSIUM [2]: 6.28 MEQ/L
SODIUM [2]: 139.5 MEQ/L
TOTAL BILIRUBIN [2]: 0.13 mg/dL
TOTAL PROTEIN [2]: 5.55 G/DL
URIC ACID [2]: 1.12 mg/dL
ABSOLUTE BASOPHIL [3]: 0 CELLS/uL
ABSOLUTE EOSINOPHIL [3]: 104 CELLS/uL
ABSOLUTE LYMPHOCYTE [3]: 15747.67 CELLS/uL
ABSOLUTE MONOCYTE [3]: 360 CELLS/uL
ABSOLUTE SEGMENTED NEUTROPHIL [3]: 1788.33 CELLS/uL
BASOPHIL [3]: 0%
EOSINOPHIL [3]: 0.67%
ERYTHROCYTE COUNT [3]: 5.61 x10E6/uL
HEMATOCRIT [3]: 36.13%
HEMOGLOBIN [3]: 13.97 G/DL
LEUKOCYTE COUNT [3]: 18 x10E3/uL
LYMPHOCYTE [3]: 87.33%
MEAN CORPUSCULAR HEMOGLOBIN [3]: 24.9 pg
MEAN CORPUSCULAR HEMOGLOBIN CONCENTRATION [3]: 38.63 G/DL
MEAN CORPUSCULAR VOLUME [3]: 64.4 fL
MONOCYTE [3]: 2%
NEUTROPHIL [3]: 10%
NUCLEATED RED BLOOD CELLS [3]: 0.33 /100WBC
PLATELET COUNT [3]: 1151.67 x10E3/uL
ALANINE AMINOTRANSFERASE [3]: 77 u/L
ALBUMIN [3]: 4.2 G/DL
ALKALINE PHOSPHATASE [3]: 443 u/L
ASPARTATE AMINOTRANSFERASE [3]: 79.33 u/L
BLOOD UREA NITROGEN [3]: 10.67 mg/dL
CARBON DIOXIDE [3]: 22.67 mmol/L
CHLORIDE [3]: 102.67 MEQ/L
CHOLESTEROL [3]: 51 mg/dL
CREATINE PHOSPHOKINASE [3]: 260 u/L
CREATININE [3]: 0.12 mg/dL
GLUCOSE [3]: 164.33 mg/dL
LACTATE DEHYDROGENASE [3]: 234.67 u/L
LIPASE [3]: 10.67 u/L
PHOSPHORUS [3]: 11.63 mg/dL
POTASSIUM [3]: 6.08 MEQ/L
SODIUM [3]: 142.6 MEQ/L
TOTAL BILIRUBIN [3]: 0.13 mg/dL
TOTAL PROTEIN [3]: 6.07 G/DL
URIC ACID [3]: 1.27 mg/dL
ABSOLUTE BASOPHIL [4]: 0 CELLS/uL
ABSOLUTE EOSINOPHIL [4]: 252.67 CELLS/uL
ABSOLUTE LYMPHOCYTE [4]: 15009.33 CELLS/uL
ABSOLUTE MONOCYTE [4]: 640.67 CELLS/uL
ABSOLUTE SEGMENTED NEUTROPHIL [4]: 3164 CELLS/uL
BASOPHIL [4]: 0%
EOSINOPHIL [4]: 1.33%
ERYTHROCYTE COUNT [4]: 5.76 x10E6/uL
HEMATOCRIT [4]: 36.13%
HEMOGLOBIN [4]: 14 G/DL
LEUKOCYTE COUNT [4]: 19.07 x10E3/uL
LYMPHOCYTE [4]: 78.67%
MEAN CORPUSCULAR HEMOGLOBIN [4]: 24.33 pg
MEAN CORPUSCULAR HEMOGLOBIN CONCENTRATION [4]: 38.73 G/DL
MEAN CORPUSCULAR VOLUME [4]: 62.87 fL
MONOCYTE [4]: 3.33%
NEUTROPHIL [4]: 16.67%
NUCLEATED RED BLOOD CELLS [4]: 0 /100WBC
PLATELET COUNT [4]: 1265.67 x10E3/uL
ALANINE AMINOTRANSFERASE [4]: 70.67 u/L
